From patent US20220298158A1, “POLYMORPH OF VENETOCLAX AND METHOD FOR PREPARING THE POLYMORPH” (Johnson Matthey Public Limited Company, priority 2019, published 2022)

Assay: Stability study of venetoclax anhydrate under storage conditions (XRPD before and after storage)
Type: physicochemical
Procedure: (§1) FIG. 6 is representative XRPD overlay of venetoclax anhydrate before storage (bottom), venetoclax anhydrate after storage at 25° C./97% RH (relative humidity) for 7 days (middle), and venetoclax anhydrate after storage at 40° C./75% RH for 7 days (top).
X-Ray Powder Diffraction patterns were collected on a Bruker AXS C2 GADDS diffractometer using Cu Kα radiation (40 kV, 40 mA), automated XYZ stage, laser video microscope for auto-sample positioning and a HiStar 2-dimensional area detector. X-ray optics consists of a single Göbel multilayer mirror coupled with a pinhole collimator of 0.3 mm.
The beam divergence, i.e. the effective size of the X-ray beam on the sample, was approximately 4 mm. A θ-θ continuous scan mode was employed with a sample—detector distance of 20 cm which gives an effective 2θ range of 3.2° — 29.7° . Typically the sample would be exposed to the X-ray beam for 120 seconds. The software used for data collection was GADDS for XP/2000 4.1.43 and the data were analysed and presented using Diffrac Plus EVA v15.0.0.0.
as §1, with “Stability studies of venetoclax anhydrate under two storage conditions were also carried out. FIG.” for “FIG.”, “C/97%” for “C./97%”, “C/75%” for “C./75%”, “(top). […]” for “(top).”

time the anhydrate remains stable on storage (XRPD overlay) (storage at 25° C/97% RH (relative humidity) for 7 days): at least 7 days
time the anhydrate remains stable on storage (XRPD overlay) (storage at 40° C/75% RH for 7 days): at least 7 days
Compound: CC1(C)CCC(CN2CCN(c3ccc(C(=O)NS(=O)(=O)c4ccc(NCC5CCOCC5)c([N+](=O)[O-])c4)c(Oc4cnc5[nH]ccc5c4)c3)CC2)=C(c2ccc(Cl)cc2)C1 [venetoclax anhydrate, 4-(4-{[2-(4-chlorophenyl)-4,4-dimethylcyclohex-1-en-1-yl]methyl}piperazin-1-yl)-N-({3-nitro-4-[(tetrahydro-2H-pyran-4-ylmethyl)amino]phenyl}sulfonyl)-2-(1H-pyrrolo[2,3-b]pyridine-5-yloxy)benzamide]
